For one experiment, the target named is T1, rFAAH (Rattus norvegicus, UniProt P97612).
T1 sequence (P97612 1-579): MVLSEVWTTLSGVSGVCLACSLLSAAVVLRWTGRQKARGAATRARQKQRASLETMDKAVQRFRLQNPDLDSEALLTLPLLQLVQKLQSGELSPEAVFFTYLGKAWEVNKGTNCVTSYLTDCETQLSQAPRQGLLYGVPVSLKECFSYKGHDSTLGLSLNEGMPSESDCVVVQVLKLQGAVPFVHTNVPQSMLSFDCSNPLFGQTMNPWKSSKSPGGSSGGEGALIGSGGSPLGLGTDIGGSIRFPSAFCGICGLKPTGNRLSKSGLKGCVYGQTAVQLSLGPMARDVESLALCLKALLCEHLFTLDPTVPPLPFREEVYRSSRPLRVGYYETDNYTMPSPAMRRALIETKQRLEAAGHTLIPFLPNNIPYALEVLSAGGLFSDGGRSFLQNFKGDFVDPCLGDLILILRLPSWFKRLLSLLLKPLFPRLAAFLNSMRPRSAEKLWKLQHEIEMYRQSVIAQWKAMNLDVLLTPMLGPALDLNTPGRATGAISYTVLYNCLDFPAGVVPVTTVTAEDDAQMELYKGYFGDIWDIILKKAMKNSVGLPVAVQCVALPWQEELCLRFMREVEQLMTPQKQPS
Put plainly: FAAH assay, rFAAH kobs/I. The format is biochemical. The conditions noted are these: additional data table, unit not given.

Another experiment concerns the target T2, Human FAAH (Homo sapiens, UniProt O00519).
T2 construct: made in house
T2 sequence (O00519 32-579 limits assumed): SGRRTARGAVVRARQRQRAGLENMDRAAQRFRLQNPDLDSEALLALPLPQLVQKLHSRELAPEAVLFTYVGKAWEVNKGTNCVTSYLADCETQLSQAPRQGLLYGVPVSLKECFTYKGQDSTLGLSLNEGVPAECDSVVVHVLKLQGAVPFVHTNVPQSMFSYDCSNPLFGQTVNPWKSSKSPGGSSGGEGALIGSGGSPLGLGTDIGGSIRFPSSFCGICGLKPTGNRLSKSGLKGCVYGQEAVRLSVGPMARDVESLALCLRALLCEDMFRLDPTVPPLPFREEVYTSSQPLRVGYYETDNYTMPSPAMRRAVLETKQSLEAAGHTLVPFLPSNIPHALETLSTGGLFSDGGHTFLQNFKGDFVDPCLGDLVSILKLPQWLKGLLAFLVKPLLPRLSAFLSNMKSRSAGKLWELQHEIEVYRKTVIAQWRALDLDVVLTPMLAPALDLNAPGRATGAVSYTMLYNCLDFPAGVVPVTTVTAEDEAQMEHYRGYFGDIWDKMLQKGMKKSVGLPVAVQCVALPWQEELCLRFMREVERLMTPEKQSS
Put plainly: FAAH assay, kinetic analysis of irreversible inhibition (kinact/Ki). The format is biochemical. As for the experimental part: A FAAH assay may be carried out in 384-well clear polystyrene plates in a total volume of 50 μl per well. All percents are by volume. To each well is placed the reaction mixture (40 μl) containing 1-4 nM FAAH, 50 mM NaPi, pH 7.4, 3 mM α-ketoglutarate, 0.15 mM NADH, 7.5 U/ml glutamate dehydrogenase, 2 mM ADP, 1 mM EDTA, and 0.1% Triton X-100 (The concentration shown for each component is the final concentration in the assay). To this mixture is added 5 μl of a compound of Examples 1 to 20 at various concentrations prepared in 50% DMSO (or 5 μl 50% DMSO for controls). This is immediately followed by the addition of 5 μl oleamide (500 μM) dissolved in […] and the reaction mixture is mixed for 1.5 min. The final concentrations of DMSO and EtOH in the assay are each 7.5%. The reactions is then incubated at 30° C. and the absorbance at 340 nm is collected over a period of 90 min with readings taken in 30-second intervals using SpectraMax Plus^384 Microplate Spectrophotometer (Molecular Devices, Sunnyvale, Calif.). Human FAAH used in the assay is prepared as described in the patent application WO 2006/067613. The purity of the enzyme used is preferably greater than 98% based on an analysis by SDS-polyacrylamide gel electrophoresis followed by Coomassie Blue staining.
Initial velocity data (V) is obtained from the slopes of the initial progressive curves. They are plotted as a function of substrate concentration and fit to the Michaelis-Menten equation (1) using Prism (GraphPad Software, Inc., San Diego, Calif.) software to obtain Km and Vmax values.
To obtain potencies of irreversible inhibitors, progressive curves consistent with first order inhibition kinetics (two-step irreversible inhibition mechanism) are fit to equation (2) by nonlinear least squares regressions to determine kobs values at each inhibitor concentration, where [P]t is the absorbance at time t, V0 is a constant related to the steady state rate of the uninhibited reaction, and kobs is the first order rate constant for enzyme inactivation. The inhibitor dissociation constant (Ki) and the first order rate
constant of enzyme inactivation at infinite inhibitor concentration (kinact) are then obtained by fitting the kobs vs. [I] curves to equation (3).

Where [1] appears, read: additional data table, unit inferred, read-out: hFAAH_Kinact/Ki.

The structures appear in SMILES notation. Like-named read-outs stand apart in the source and are kept apart here.

As to `CCCCOc1cccc(C=C2CCN(C(=O)Nc3onc(C)c3C)CC2)c1` [4-(3-butoxybenzylidene)-N-(3,4-dimethylisoxazol-5-yl)piperidine-1-carboxamide], the “FAAH_KINACTR:rFAAH:kobs/I” value at rFAAH is listed as 2820. In addition, the kinact/KI at Human FAAH (setting [1]) is 14800 M⁻¹ s⁻¹.
Take `CCCCOc1cccc(C=C2CCN(C(=O)Nc3cnoc3C)CC2)c1` [4-(3-butoxybenzylidene)-N-(5-methylisoxazol-4-yl)piperidine-1-carboxamide]: the “FAAH_KINACTR:rFAAH:kobs/I” value on rFAAH is given as 12.9. In addition, the kinact/KI on Human FAAH (setting [1]) was determined as 2120 M⁻¹ s⁻¹.
For `Cc1noc(NC(=O)N2CCC(=Cc3cccc(OCCC4CC4)c3)CC2)c1C` [4-[3-(2-cyclopropylethoxy)benzylidene]-N-(3,4-dimethylisoxazol-5-yl)piperidine-1-carboxamide], in that order: 2660 and 12900 M⁻¹ s⁻¹.
In the case of `Cc1oncc1NC(=O)N1CCC(=Cc2cccc(OCCOC(C)C)c2)CC1` [4-[3-(2-isopropoxyethoxy)benzylidene]-N-(5-methylisoxazol-4-yl)piperidine-1-carboxamide], the “FAAH_KINACTR:rFAAH:kobs/I” value on rFAAH is on record as below 12.6. Further, on Human FAAH (setting [1]), the kinact/KI stood at 2670 M⁻¹ s⁻¹.
For `Cc1oncc1NC(=O)N1CCC(=Cc2cccc(OCCCc3cnoc3)c2)CC1` [4-[3-(3-isoxazol-4-ylpropoxy)benzylidene]-N-(5-methylisoxazol-4-yl)piperidine-1-carboxamide], in that order: below 13.2 and 3990 M⁻¹ s⁻¹.
On to `Cc1noc(NC(=O)N2CCC(=Cc3cccc(OCC4CCCC4)c3)CC2)c1C` [4-[3-(cyclopentylmethoxy)benzylidene]-N-(3,4-dimethylisoxazol-5-yl)piperidine-1-carboxamide], for which, on rFAAH, the “FAAH_KINACTR:rFAAH:kobs/I” value came to 2360. Besides, at Human FAAH (setting [1]), the kinact/KI worked out at 5110 M⁻¹ s⁻¹.
The matching figures for `Cc1oncc1NC(=O)N1CCC(=Cc2cccc(OCC3CCCC3)c2)CC1` [4-[3-(cyclopentylmethoxy)benzylidene]-N-(5-methylisoxazol-4-yl)piperidine-1-carboxamide]: below 10.0 and 838 M⁻¹ s⁻¹.
Consider `Cc1oncc1NC(=O)N1CCC(=Cc2cccc(OCCc3cccc(F)c3)c2)CC1` [4-{3-[2-(3-fluorophenyl)ethoxy]benzylidene}-N-(5-methylisoxazol-4-yl)piperidine-1-carboxamide], for which the “FAAH_KINACTR:rFAAH:kobs/I” value at rFAAH worked out at 59.9. Moreover, the kinact/KI on Human FAAH (setting [1]) was determined as 11000 M⁻¹ s⁻¹.
The matching figures for `Cc1oncc1NC(=O)N1CCC(=Cc2cccc(OCCc3ccc(F)cc3)c2)CC1` [4-{3-[2-(4-fluorophenyl)ethoxy]benzylidene}-N-(5-methylisoxazol-4-yl)piperidine-1-carboxamide]: 52.7 and 1480 M⁻¹ s⁻¹.
The matching figures for `Cc1noc(NC(=O)N2CCC(=Cc3cccc(OCC4CCC(F)(F)CC4)c3)CC2)c1C` [4-{3-[(4,4-difluorocyclohexyl)methoxy]benzylidene}-N-(3,4-dimethylisoxazol-5-yl)piperidine-1-carboxamide]: 5360 and 3970 M⁻¹ s⁻¹.
For `Cc1oncc1NC(=O)N1CCC(=Cc2cccc(OCC3CCC(F)(F)CC3)c2)CC1` [4-{3-[(4,4-difluorocyclohexyl)methoxy]benzylidene}-N-(5-methylisoxazol-4-yl)piperidine-1-carboxamide], in that order: 16.2 and 1730 M⁻¹ s⁻¹.
Regarding `Cc1noc(NC(=O)N2CCC(=Cc3cccc(OC4CCC(F)(F)CC4)c3)CC2)c1C` [4-{3-[(4,4-difluorocyclohexyl)oxy]benzylidene}-N-(3,4-dimethylisoxazol-5-yl)piperidine-1-carboxamide], the “FAAH_KINACTR:rFAAH:kobs/I” value at rFAAH was determined as 1750. In addition, on Human FAAH (setting [1]), the kinact/KI worked out at 2540 M⁻¹ s⁻¹.
For `Cc1oncc1NC(=O)N1CCC(=Cc2cccc(OC3CCC(F)(F)CC3)c2)CC1` [4-{3-[(4,4-difluorocyclohexyl)oxy]benzylidene}-N-(5-methylisoxazol-4-yl)piperidine-1-carboxamide], in that order: 19.8 and 2900 M⁻¹ s⁻¹.
For the compound `O=C(Nc1cnoc1)N1CCC(=Cc2cccc(OC3CCC(F)(F)CC3)c2)CC1` [4-{3-[(4,4-difluorocyclohexyl)oxy]benzylidene}-N-isoxazol-4-ylpiperidine-1-carboxamide], on rFAAH, the “FAAH_KINACTR:rFAAH:kobs/I” value is reported as below 10.0. In addition, the kinact/KI on Human FAAH (setting [1]) was found to be 1530 M⁻¹ s⁻¹.
The matching figures for `Cc1noc(NC(=O)N2CCC(=Cc3cccc(OC4CCC(C)(C)CC4)c3)CC2)c1C` [4-{3-[(4,4-dimethylcyclohexyl)oxy]benzylidene}-N-(3,4-dimethylisoxazol-5-yl)piperidine-1-carboxamide]: 4910 and 959 M⁻¹ s⁻¹.
For `Cc1oncc1NC(=O)N1CCC(=Cc2cccc(OC3CCC(C)(C)CC3)c2)CC1` [4-{3-[(4,4-dimethylcyclohexyl)oxy]benzylidene}-N-(5-methylisoxazol-4-yl)piperidine-1-carboxamide], in that order: 160 and 2860 M⁻¹ s⁻¹.
For the compound `Cc1noc(NC(=O)N2CCC(=Cc3cccc(OCC4CCCCO4)c3)CC2)c1C` (stereo not shown) [Example 1, N-(3,4-dimethylisoxazol-5-yl)-4-[3-(tetrahydro-2H-pyran-2-ylmethoxy)benzylidene]piperidine-1-carboxamide], the kinact/KI at Human FAAH (oleamide substrate, 30° C., pH 7.4, read-out: hFAAH KInact/KI) was determined as 5450 M⁻¹ s⁻¹.
Consider `Cn1nnnc1NC(=O)N1CCC(=Cc2cccc(OCC3CCCCO3)c2)CC1` (stereo not shown) [N-(1-methyl-1H-tetrazol-5-yl)-4-[3-(tetrahydro-2H-pyran-2-ylmethoxy)benzylidene]piperidine-1-carboxamide], for which the “FAAH_KINACTR:rFAAH:kobs/I” value at rFAAH was found to be 1610. Besides, at Human FAAH (setting [1]), the kinact/KI is 7490 M⁻¹ s⁻¹.
The matching figures for `Cc1noc(NC(=O)N2CCC(=Cc3cccc(OC(C)Cc4ccccc4)c3)CC2)c1C` (stereo not shown) [N-(3,4-dimethylisoxazol-5-yl)-4-[3-(1-methyl-2-phenylethoxy)benzylidene]piperidine-1-carboxamide]: 10600 and 3410 M⁻¹ s⁻¹.
The matching figures for `CCCC(C)Oc1cccc(C=C2CCN(C(=O)Nc3onc(C)c3C)CC2)c1` (stereo not shown) [N-(3,4-dimethylisoxazol-5-yl)-4-[3-(1-methylbutoxy)benzylidene]piperidine-1-carboxamide]: 4610 and 4600 M⁻¹ s⁻¹.
Regarding `Cc1noc(NC(=O)N2CCC(=Cc3cccc(OCCOC(C)C)c3)CC2)c1C` [N-(3,4-dimethylisoxazol-5-yl)-4-[3-(2-isopropoxyethoxy)benzylidene]piperidine-1-carboxamide], on rFAAH, the “FAAH_KINACTR:rFAAH:kobs/I” value is 4760. In addition, the kinact/KI on Human FAAH (setting [1]) is 12700 M⁻¹ s⁻¹.
Consider `Cc1noc(NC(=O)N2CCC(=Cc3cccc(OCCCc4cnoc4)c3)CC2)c1C` [N-(3,4-dimethylisoxazol-5-yl)-4-[3-(3-isoxazol-4-ylpropoxy)benzylidene]piperidine-1-carboxamide], for which the “FAAH_KINACTR:rFAAH:kobs/I” value at rFAAH turned out to be 2580. Further, the kinact/KI at Human FAAH (setting [1]) is 7170 M⁻¹ s⁻¹.
